pEC50: −log10 of the molar value.
Columns and labels:
in vivo = conditions: female, Göttingen, minipig, iv, 5 nmol/kg
Experimental: Pharmacokinetic Study in Minipigs
The purpose of this study is to determine the half-life in vivo of the derivatives of the present invention after i.v. administration to minipigs, i.e. the prolongation of their time in the body and thereby their time of action. This is done in a pharmacokinetic (PK) study, where the terminal half-life of the derivative in question is determined. By terminal half-life is generally meant the period of time it takes to halve a certain plasma concentration, measured after the initial distribution phase.
Female Göttingen minipigs were obtained from Ellegaard Göttingen Minipigs (Dalmose, Denmark) approximately 7-14 months of age and weighing from approximately 16-35 kg were used in the studies. The minipigs were housed individually and fed restrictedly once daily with SDS minipig diet (Special Diets Services, Essex, UK).
After at 3 weeks of acclimatisation two permanent central venous catheters were implanted in vena cava caudalis in each animal. The animals were allowed 1 week recovery after the surgery, and were then used for repeated pharmacokinetic studies with a suitable wash-out period between successive derivative dosing.
Blood samples (for example 0.8 ml) were collected in EDTA buffer (8 mM) and then centrifuged at 4° C. and 1942G for 10 minutes.
Individual plasma concentration-time profiles were analysed by a non-compartmental model in Phoenix WinNonLin ver. […] (Pharsight Inc., Mountain View, Calif., USA), and the resulting terminal half-lives (harmonic mean) determined.

human GIP receptor = target: T1, human GIP receptor (Homo sapiens, UniProt P48546); test: In vitro potency, CRE luciferase reporter gene assay, whole BHK cells expressing human GIP receptor; type: cell-based; conditions: 0.2% HSA
T1 construct: expressed in transfected cells; host or cells: BHK cells (parent line BHKTS13), clone BHK CRE luc2P hGIPR clone #5
T1 sequence (P48546 22-466): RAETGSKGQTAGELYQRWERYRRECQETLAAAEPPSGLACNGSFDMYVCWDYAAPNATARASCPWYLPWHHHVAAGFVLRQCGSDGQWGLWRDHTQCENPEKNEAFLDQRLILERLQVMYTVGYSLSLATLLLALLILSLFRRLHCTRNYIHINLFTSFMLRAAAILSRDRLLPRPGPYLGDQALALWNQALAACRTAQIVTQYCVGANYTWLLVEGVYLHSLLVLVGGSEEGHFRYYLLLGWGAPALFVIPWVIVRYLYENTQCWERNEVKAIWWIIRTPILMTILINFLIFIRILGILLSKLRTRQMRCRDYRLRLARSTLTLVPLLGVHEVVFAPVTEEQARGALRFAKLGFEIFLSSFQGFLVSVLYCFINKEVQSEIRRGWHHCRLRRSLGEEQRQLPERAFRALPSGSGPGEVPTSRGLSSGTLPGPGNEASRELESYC
Procedure, shortened: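 BHK clones carrying a CRE luciferase element, each transfected with one human receptor, were seeded at 5000 cells/well overnight. Compounds were diluted in buffer with 1% ovalbumin and 0.1% Pluronic F-68, with or without human serum albumin. Luminescence was read after steadylite plus; non-linear log(agonist)-response fit, averaged over at least two replicates.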

- half-life (in vivo): 79 h
- pEC50 (human GIP receptor): 10.68
Compound: CCCC[C@H](NC(=O)[C@H](C)NC(=O)[C@@H](NC(=O)[C@H](CO)NC(=O)[C@H](Cc1ccc(O)cc1)NC(=O)[C@H](CC(=O)O)NC(=O)[C@H](CO)NC(=O)[C@@H](NC(=O)[C@H](Cc1ccccc1)NC(=O)[C@@H](NC(=O)CNC(=O)[C@H](CCC(=O)O)NC(=O)C(C)(C)NC(=O)[C@@H](Cc1ccc(O)cc1)NC(C)=O)[C@@H](C)O)[C@@H](C)CC)[C@@H](C)CC)C(=O)N[C@@H](CC(=O)O)C(=O)N[C@@H](CCCCN)C(=O)N[C@H](C(=O)N[C@@H](CCCNC(=N)N)C(=O)N[C@@H](CCC(N)=O)C(=O)N[C@@H](CCC(N)=O)C(=O)N[C@@H](CC(=O)O)C(=O)N[C@@H](Cc1ccccc1)C(=O)N[C@H](C(=O)N[C@@H](CCCCNC(=O)CC[C@H](NC(=O)CC[C@H](NC(=O)CC[C@H](NC(=O)CCCCCCCCCCCCCCCCC(=O)O)C(=O)O)C(=O)O)C(=O)O)C(=O)N[C@@H](Cc1c[nH]c2ccccc12)C(=O)N[C@@H](CC(C)C)C(=O)N[C@@H](CC(C)C)C(=O)N[C@@H](C)C(=O)N[C@@H](CCC(N)=O)C(=O)N[C@@H](CCCCN)C(=O)NCC(=O)O)C(C)C)[C@@H](C)CC [Compound 5, N{1}-acetyl, N{Epsilon-24}-[(4S)-4-carboxy-4-[[(4S)-4-carboxy-4-[[(4S)-4-carboxy-4-(17-carboxyheptadecanoylamino)butanoyl]amino]butanoyl]amino]butanoyl]-[D-Tyr1,Aib2,Nle14,Arg18,Lys24]-hGIP(1-31)]
